Data set [1] has as its system EBV. The data set is described as follows: Inhibition of EBV production in H1 cells (bioassay, EBV DP activity in superinfected Raji cells). It counts as cell-based. The conditions noted are these: for IC90: human gammaherpesvirus 4, Raji, 120 h. Here is the method:
(§1) H1 cells were maintained in […] growth for two days prior to the initiation of treatment. The cells were centrifuged at 600 g for 10 min. at room temperature to separate them from the medium containing pre-existing virus particles. The H1 cells were seeded in 24 well plates at a density of 1×10^5 cells per well in 2 ml of fresh medium with or without drug and incubated at 37° C. for 5 days. The medium containing virion was saved and used for evaluating the inhibitory effect of drugs on virus production and infectivity by use of a bioassay. The virion were pelleted from the cell free medium by centrifugation at 45,000 rpm for 90 min. in a SW-50 Ti rotor (Beckman). The virion were resuspended in 1 ml growth medium and then used to infect 1×10^6 Raji cells for 48 hours. Since the level of EBV DP activity in Raji cells post superinfection is proportional to the number of virions added (unpublishedresult), the EBV specific DP activity induced was able to be measured. The inhibitory drug effect Was calculated by comparing the EBV DP activity to multiple dilution controls.
Inhibitory effect of compounds on EBV: The CD50 was performed by
exposing H1 cells to different concentrations of the compounds in normal
growth medium at 37° C. for 72 hours; the cells were then counted
and compared with controls. H1 cells were treated for 5 days and the
ID90 was determined by bioassay.

Data set [2] has as its system HBV. The data set is described as follows: Inhibition of HBV DNA in 2.2.15 cells (Southern analysis). It counts as cell-based, HBV (human hepatoma 2.2.15 cells). The note with it: for Therapeutic Index (DC50/ID50): HBV, CD50 / anti-HBV ID50; for IC50: Hepatitis B virus, 144 h, 2.2.15 cells, 6-day treatment, 50% inhibition of the DNA, read-out: Anti-HBV Activity ID50. Here is the method: Human hepatoma cells with HBV (2.2.15 cells) were used in the assay. These cells were grown to confluence in minimal essential medium with 10% fetal bovine serum. The media was changed at 3-day intervals. At confluence the treatment with the drugs was initiated and then continued for three days. Another addition of the same concentration of the drug was given at this point after removal of the media from the cultures and cultures maintained for an additional period of 3 days. The medium after the 6-day treatment was harvested and the viral particles precipitated by the polyethylene glycol method. The particles were subsequently digested and then processed for Southern analysis. The blots were hybridizied to an HBV-specific probe and vital DNA amounts assessed in comparison to DNA levels from cultures not treated with the drugs. The genomic DNA was digested with Hind III and subjected to Southern analysis. Levels of the episomal DNA were determined in relation to the integrated HBV DNA. The drug concentrations that cause 50% inhibition of the DNA (ID50) as compared to the controls were calculated.

Data set [3] in a line: Cytotoxicity in MT2 cells (CD50). It counts as cell-based. The note with it: human.
Data set [4] can be described thus: Cytotoxicity in CEM cells (CD50). It counts as cell-based. The conditions noted are these: human.
Data set [5] in a line: Cytotoxicity (CD50) of Table I, cell line not given. It counts as cell-based.
A short description of data set [6]: Cytotoxicity in H1 cells (cell count). The conditions noted are these: 37° C., read-out: CD50. It counts as cell-based.
Data set [7] concerns mitochondrial DNA. The data set is described as follows: Mitochondrial DNA content in H1 cells (slot blot assay). It counts as cell-based, human. The conditions noted are these: 1 mM, 6 days. Here is the method:
as §1
Slot Blot Assay--The amount of mitochondrial DNA was measured by the slot blot method (2). […] The amount of mitochondrial DNA in the treated and non-treated H1 cells was quantified by densitometer (LKB Ultroscan XL).

Setting [8] is: EBV, H1 cells treated for 5 days, bioassay, read-out: ID90 (the source's name).

Where two headings read alike, the source gives them in different places. Bounds are passed on as bounds.

With `Nc1nc2c(ncn2COCCO)c(=O)[nH]1` [ACV], the IC90 in data set [1] (setting [8]) was 50 ± 8 µM.

`CCc1cn([C@@H]2O[C@H](CO)[C@@H](O)[C@@H]2F)c(=O)[nH]c1=O` [D-FEAU]: the “Therapeutic Index (DC50/ID50)” value in data set [2] was above 80. For the same molecule, the IC50 in data set [2] amounted to 5 µM. Further, the CC50 in data set [3] was 100 µM; in data set [4], 90 µM; in data set [5] it was above 400 µM. Also, the “Therapeutic Index (CD50/ID90)” value in data set [1] (EBV, H1 cells) was above 400. Besides, the IC90 in data set [1] (setting [8]) came out at 1 µM. The CC50 at 72 h in data set [6] is above 400 µM.

On to `Cc1cn([C@@H]2O[C@H](CO)[C@@H](O)[C@@H]2F)c(=O)[nH]c1=O` [D-FMAU], for which the “Therapeutic Index (DC50/ID50)” value in data set [2] was below 5. In addition, the figures for the CC50 in data set [3], in data set [4] and in data set [5] were 8 to 9 µM, 10 µM and below 10 µM, respectively. In addition, the “Therapeutic Index (CD50/ID90)” value in data set [1] (EBV, H1 cells) is on record as below 100. The IC90 in data set [1] (setting [8]) stood at 0.1 µM. In addition, the CC50 at 72 h in data set [6] was below 10 µM.

For `Nc1nc2c(ncn2COC(CO)CO)c(=O)[nH]1` [DHPG], in data set [1] (setting [8]), the IC90 worked out at 5 ± 1 µM.

`CCc1cn([C@H]2O[C@@H](CO)[C@H](O)[C@H]2F)c(=O)[nH]c1=O` [L-FEAU, N1-(2'-Deoxy-2'-fluoro-β-L-arabinofuranosyl)-5-ethyluracil]: in data set [2], the “Therapeutic Index (DC50/ID50)” value was above 80. Besides, in data set [2], the IC50 was above 5 µM. Also, the results for the CC50 in data set [3], in data set [4] and in data set [5] were 100 µM, above 100 µM and above 400 µM, respectively. For the same molecule, in data set [1] (EBV, H1 cells), the “Therapeutic Index (CD50/ID90)” value came out at 20. Further, the IC90 in data set [1] (read-out: ID90) is 20 µM. Besides, in data set [6], the CC50 at 72 h was above 400 µM.

With `Nc1nc(=O)n([C@H]2O[C@@H](CO)[C@H](O)[C@H]2F)cc1I` [L-FIAC, N1-(2'-Deoxy-2'-fluoro-β-L-arabinofuranosyl)-5-iodocytosine], the “Inhibitory effect on EBV (in words)” value in data set [1] (EBV, H1 cells, up to 100 μM) was “inactivity up to 100 μM”.

In the case of `Cc1cn([C@H]2O[C@@H](CO)[C@H](O)[C@H]2F)c(=O)[nH]c1=O` [L-FMAU, N1-(2'-Deoxy-2'-fluoro-β-L-arabinofuranosyl)-thymine], in data set [2], the “Therapeutic Index (DC50/ID50)” value is on record as 9130. For the same molecule, the CC50 in data set [3] was 100 µM; in data set [4], above 100 µM; in data set [5], 913 ± 70 µM. For the same molecule, the “Therapeutic Index (CD50/ID90)” value in data set [1] (EBV, H1 cells) was determined as 182. Moreover, the IC90 in data set [1] (setting [8]) stood at 5 ± 0.8 µM. Also, the CC50 at 72 h in data set [6] was 913 ± 70 µM. Also, the “Inhibition of mitochondrial DNA content in H1 cells” value in data set [7] is on record as “No inhibition”.

Take `Nc1nc2c(ncn2CCC(CO)CO)c(=O)[nH]1` [PCV]: the IC90 in data set [1] (setting [8]) came to 20 ± 2 µM.

In the case of `O=C(O)P(=O)(O)O` [PFA], in data set [1] (setting [8]), the IC90 came to 75 ± 5 µM.

For the origin of these results see US5567688A, “L-nucleosides for the treatment of hepatitis B-virus” (priority 1995, dated 1996).
